Assay results published in patent US12076323B2, “Treatment of hair loss disorders with deuterated JAK inhibitors” (Sun Pharmaceutical Industries, Inc., priority 2016, dated 2024).
Like-named read-outs stand apart in the source and are kept apart here.

What was measured:
[1] = Metabolic stability using human liver microsomes; assay type: in vitro ADME; settings: 0.25 μM test compound, 2 mM NADPH, 37° C.
Procedure: Deuterated test compounds were supplied by Concert Pharmaceuticals.
A 10 μL aliquot of the 12.5 μM test compound was added to the microsomes and the mixture was pre-warmed for 10 minutes.
Data analysis was performed using Microsoft Excel Software.

[2] = Single Ascending Dose (SAD) study, pharmacokinetics in healthy volunteers; assay type: in vivo, human; settings: fasted; for AUC(0-inf) / Cmax / half-life / AUC(0-t) / concentration at 24 h / Vd/F / Tmax: human, in vivo, oral; for AUC(0-inf) / Cmax / half-life / AUC(0-t) / concentration at 24 h / Vd/F / CL/F: arithmetic mean; for AUC(0-t): read-out: AUC0-24hr; for concentration at 24 h: read-out: C24hr; for Vd/F: read-out: Vz/F; for Tmax: median
[3] = Multiple Ascending Dose (MAD) study, pharmacokinetics in healthy volunteers; assay type: in vivo, human; settings: for Cmax / half-life / AUC(0-t) / concentration at 12 h / Tmax / concentration at 24 h: human, in vivo, oral; for Cmax / half-life / AUC(0-t) / concentration at 12 h / concentration at 24 h: arithmetic mean; for concentration at 12 h: read-out: C12hr; for Tmax: median; for concentration at 24 h: read-out: C24hr
[4] = Combined SAD and MAD (Phase 1) studies, safety and tolerability; assay type: in vivo, human
Procedure: In the combined SAD and MAD studies, a total of 77 subjects were dosed (60 received CTP-543; 17 received placebo).

[5] = tested on: IL-6-stimulated phosphorylated STAT3 (pSTAT3); test: Pharmacodynamic analysis in MAD study: IL-6-stimulated pSTAT3; assay type: in vivo, human; settings: all treatment groups
Procedure: (§1) Pharmacodynamic analyses were also performed during the MAD study of the Phase 1 trial to assess the inhibition of IL-6- and IFN-γ-mediated JAK/STAT signaling.

[6] = tested on: IFN-γ-mediated STAT1 signaling; test: Pharmacodynamic analysis in MAD study: IFN-γ-mediated STAT1 signaling; assay type: in vivo, human; settings: disease-relevant immune cell types, all doses evaluated
Procedure: as §1

[7] = single dose 8 mg as phosphate salt, n = 6
[8] = single dose 16 mg as phosphate salt, n = 6
[9] = single dose 32 mg as phosphate salt, n = 6
[10] = single dose 48 mg as phosphate salt, n = 5

t1/2 longer than the t1/2 of non-deuterated ruxolitinib [1]: about 75%
AUC(0-inf) [2, 7]: 589 ng·h/mL
Cmax [2, 7]: 118 ng/mL
half-life [2, 7]: 3.14 h
AUC(0-t) [2, 7]: 584 ng·h/mL
concentration at 24 h [2, 7]: 1.02 ng/mL
Vd/F [2, 7]: 64.1 L
Tmax [2, 7]: 1.25 h
AUC(0-inf) [2, 8]: 1350 ng·h/mL
Cmax [2, 8]: 260 ng/mL
half-life [2, 8]: 3.32 h
AUC(0-t) [2, 8]: 1330 ng·h/mL
concentration at 24 h [2, 8]: 2.77 ng/mL
Vd/F [2, 8]: 61 L
AUC(0-inf) [2, 9]: 2460 ng·h/mL
Cmax [2, 9]: 535 ng/mL
half-life [2, 9]: 3.52 h
AUC(0-t) [2, 9]: 2420 ng·h/mL
concentration at 24 h [2, 9]: 5.6 ng/mL
Vd/F [2, 9]: 68.4 L
Tmax [2, 9]: 1.25 h
AUC(0-inf) [2, 10]: 4160 ng·h/mL
Cmax [2, 10]: 853 ng/mL
half-life [2, 10]: 3.61 h
AUC(0-t) [2, 10]: 4100 ng·h/mL
concentration at 24 h [2, 10]: 9.26 ng/mL
Vd/F [2, 10]: 63.2 L
CL/F [2, 7]: 14.92 L/h
CL/F [2, 8]: 13.87 L/h
CL/F [2, 9]: 13.88 L/h
CL/F [2, 10]: 12.75 L/h
average systemic exposure versus published average reported exposure of 20 mg BID ruxolitinib ([3]; 16 mg BID of Compound (I)): comparable
Cmax ([3]; 8 mg, 8 mg BID, Day 1, n = 4): 160 ng/mL
half-life ([3]; 8 mg, 8 mg BID, Day 1, n = 4): 3.77 h
AUC(0-t) ([3]; 8 mg, 8 mg BID, Day 1, n = 4, read-out: AUCtau/AUC0-12hr): 703 ng·h/mL
concentration at 12 h ([3]; 8 mg, 8 mg BID, Day 1, n = 4): 13.7 ng/mL
Tmax ([3]; 8 mg, 8 mg BID, Day 1, n = 4): 1 h
Cmax ([3]; 8 mg, 8 mg BID, Day 7, n = 4): 183 ng/mL
half-life ([3]; 8 mg, 8 mg BID, Day 7, n = 4): 4.2 h
AUC(0-t) ([3]; 8 mg, 8 mg BID, Day 7, n = 4, read-out: AUCtau/AUC0-12hr): 844 ng·h/mL
concentration at 12 h ([3]; 8 mg, 8 mg BID, Day 7, n = 4): 13.2 ng/mL
Cmax ([3]; 8 mg, 8 mg QD, Day 1, n = 7): 156 ng/mL
half-life ([3]; 8 mg, 8 mg QD, Day 1, n = 7): 3.23 h
AUC(0-t) ([3]; 8 mg, 8 mg QD, Day 1, n = 7, read-out: AUCtau/AUC0-24hr): 704 ng·h/mL
concentration at 24 h ([3]; 8 mg, 8 mg QD, Day 1, n = 7): 0.86 ng/mL
Tmax ([3]; 8 mg, 8 mg QD, Day 1, n = 7): 1 h
Cmax ([3]; 8 mg, 8 mg QD, Day 7, n = 7): 151 ng/mL
half-life ([3]; 8 mg, 8 mg QD, Day 7, n = 7): 3.51 h
AUC(0-t) ([3]; 8 mg, 8 mg QD, Day 7, n = 7, read-out: AUCtau/AUC0-24hr): 668 ng·h/mL
concentration at 24 h ([3]; 8 mg, 8 mg QD, Day 7, n = 7): 1.01 ng/mL
Tmax ([3]; 8 mg, 8 mg QD, Day 7, n = 7): 1 h
Cmax ([3]; 16 mg, 16 mg BID, Day 1, n = 8): 290 ng/mL
half-life ([3]; 16 mg, 16 mg BID, Day 1, n = 8): 2.89 h
AUC(0-t) ([3]; 16 mg, 16 mg BID, Day 1, n = 8, read-out: AUCtau/AUC0-12hr): 1060 ng·h/mL
concentration at 12 h ([3]; 16 mg, 16 mg BID, Day 1, n = 8): 15.3 ng/mL
Tmax ([3]; 16 mg, 16 mg BID, Day 1, n = 8): 1 h
Cmax ([3]; 16 mg, 16 mg BID, Day 7, n = 8): 288 ng/mL
half-life ([3]; 16 mg, 16 mg BID, Day 7, n = 8): 3.53 h
AUC(0-t) ([3]; 16 mg, 16 mg BID, Day 7, n = 8, read-out: AUCtau/AUC0-12hr): 1130 ng·h/mL
concentration at 12 h ([3]; 16 mg, 16 mg BID, Day 7, n = 8): 16.5 ng/mL
Tmax ([3]; 16 mg, 16 mg BID, Day 7, n = 8): 0.75 h
Cmax ([3]; 24 mg, 24 mg QD, Day 1, n = 8): 384 ng/mL
half-life ([3]; 24 mg, 24 mg QD, Day 1, n = 8): 3.14 h
AUC(0-t) ([3]; 24 mg, 24 mg QD, Day 1, n = 8, read-out: AUCtau/AUC0-24hr): 1670 ng·h/mL
concentration at 24 h ([3]; 24 mg, 24 mg QD, Day 1, n = 8): 2.48 ng/mL
Tmax ([3]; 24 mg, 24 mg QD, Day 1, n = 8): 0.5 h
Cmax ([3]; 24 mg, 24 mg QD, Day 7, n = 8): 310 ng/mL
half-life ([3]; 24 mg, 24 mg QD, Day 7, n = 8): 3.5 h
AUC(0-t) ([3]; 24 mg, 24 mg QD, Day 7, n = 8, read-out: AUCtau/AUC0-24hr): 1530 ng·h/mL
concentration at 24 h ([3]; 24 mg, 24 mg QD, Day 7, n = 8): 3.39 ng/mL
Tmax ([3]; 24 mg, 24 mg QD, Day 7, n = 8): 1 h
Cmax ([3]; 32 mg, 32 mg QD, Day 1, n = 8): 509 ng/mL
half-life ([3]; 32 mg, 32 mg QD, Day 1, n = 8): 2.86 h
AUC(0-t) ([3]; 32 mg, 32 mg QD, Day 1, n = 8, read-out: AUCtau/AUC0-24hr): 2220 ng·h/mL
concentration at 24 h ([3]; 32 mg, 32 mg QD, Day 1, n = 8): 2.95 ng/mL
Tmax ([3]; 32 mg, 32 mg QD, Day 1, n = 8): 0.75 h
Cmax ([3]; 32 mg, 32 mg QD, Day 7, n = 8): 492 ng/mL
AUC(0-t) ([3]; 32 mg, 32 mg QD, Day 7, n = 8, read-out: AUCtau/AUC0-24hr): 2100 ng·h/mL
concentration at 24 h ([3]; 32 mg, 32 mg QD, Day 7, n = 8): 5.12 ng/mL
Tmax ([3]; 32 mg, 32 mg QD, Day 7, n = 8): 0.75 h
accumulation with repeated dosing ([3]; repeated dosing, seven consecutive days): did not accumulate
SMILES: [2H]C1([2H])C([C@@H](CC#N)n2cc(-c3ncnc4[nH]ccc34)cn2)C([2H])([2H])C([2H])([2H])C1([2H])[2H] [Compound (I), (R)-3-(4-(7H-pyrrolo[2,3-d]pyrimidin-4-yl)-1H-pyrazol-1-yl)-3-(cyclopentyl-2,2,3,3,4,4,5,5-d8)propanenitrile]
tolerability ([4]; Phase 1 study): generally well tolerated
cases of mild neutropenia ([4]; combined SAD and MAD studies): resolved or trended toward recovery after dosing completion
most common adverse event reported ([4]; combined SAD and MAD studies): headache
severe neutropenia (Grade 3 or 4) ([4]; combined SAD and MAD studies): not observed
withdrawal or dose modification related to CTP-543 ([4]; combined SAD and MAD studies): No withdrawal or dose modification
serious adverse events ([4]; combined SAD and MAD studies, 60 subjects received CTP-543): No serious adverse events were reported
absorption ([4]; combined SAD and MAD studies, oral): rapidly absorbed
IL-6-stimulated phosphorylated STAT3 (pSTAT3) ([5]; MAD study): dose-related reduction
pSTAT3 inhibition at 24 hours post-dose ([5]; 24 hours post-dose): returned to approximate baseline values
IFN-γ-mediated STAT1 signaling [6]: significantly inhibited
